Data reported in publication PMC9909651 (Acta Pharmacologica Sinica, 2023).
“Also recorded” adds a separate entry of the source.

What was measured:
[1] = target: VP30/NP interface (VP30_110–272 protein, NP-FITC peptide) (Zaire ebolavirus, UniProt Q05323); test: biochemical; format: binding, Ebola virus
VP30_110–272 protein [2] = target: T1, VP30_110–272 protein (Zaire ebolavirus, UniProt Q05323); test: biochemical; format: binding, Ebola virus
VP30_110–272 protein [3] = target: T1, VP30_110–272 protein; format: binding, Ebola virus
[4] = test system: EBOV minigenome in Huh7-4P cells; format: cell-based, Ebola virus
[5] = test system: EBOV minigenome in Huh7-4P cells; format: cell-based, Ebola virus; remark: listed apart in the source
VP30 protein = VP30 protein (Zaire ebolavirus, UniProt Q05323); format: binding, Ebola virus
[6] = target: NP-FITC (NP-derived VP30-binding peptide labelled with FITC) (Ebola virus (EBOV)); test: fluorescence polarisation
[7] = target: T2, Ebola virus VP30 110-272 protein (MBP tag removed) (Ebola virus (EBOV)), Q05323; test: fluorescence polarisation
T2 chain: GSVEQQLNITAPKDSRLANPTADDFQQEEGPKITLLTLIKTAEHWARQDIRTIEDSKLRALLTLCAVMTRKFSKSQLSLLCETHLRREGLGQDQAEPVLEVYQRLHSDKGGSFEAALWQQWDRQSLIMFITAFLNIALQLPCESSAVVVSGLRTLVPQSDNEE

## O=C(O)c1cnc(O)nc1O [2,4-dihydroxypyrimidine-5-carboxylic acid]
[1]
  competitive FP assay, result in words: failed in the FP concentration gradient experiment

## CCCCCCCCCCCC1=C(O)C(=O)C=C(O)C1=O [Embelin]
[1]; IC50, competitive FP assay
  IC50: 33.2 µM
VP30_110–272 protein [2]
  Kd: 4.62 µM
VP30_110–272 protein [3]
  effect on stability / melting temperature (Tm) of VP30, TSA: can specifically bind to VP30 and change its melting temperature Tm; also recorded: increased the stability of VP30 at pH 6.5, 7.0, 7.5 and 8.0

## Cc1cc(SCc2sc(-c3ccc(C(F)(F)F)c(F)c3)nc2C)ccc1OCC(=O)O [GW0742]
[4]
  antiviral activity in MG assay, in words: good antiviral activity
[5]
  synergistic effect, in words: does not exhibit obvious synergistic effects
VP30 protein
  binding to VP30 already bound to Embelin or 8-gingerol, synergy SPR: a reduction in binding was observed

B1: Ebola virus VP30 110-272 protein (MBP tag removed), Q05323 110-272 (domain or fragment)
chain: GSVEQQLNITAPKDSRLANPTADDFQQEEGPKITLLTLIKTAEHWARQDIRTIEDSKLRALLTLCAVMTRKFSKSQLSLLCETHLRREGLGQDQAEPVLEVYQRLHSDKGGSFEAALWQQWDRQSLIMFITAFLNIALQLPCESSAVVVSGLRTLVPQSDNEE
[6]
  IC50: 3.07 µM

## PTVAPPAPVYR (modifications not checked) [unlabeled NP peptide (NP-derived VP30-binding peptide)]
[7]
  IC50: 0.33 µM
